# Values quoted from earlier work in US9134323B2, “Antibody that specifically binds to an epitope in the tureet region of a human Kir channel” (priority 2009, dated 2015).
# Where no end group is shown, it is not given here.
# Columns and labels:
# [1] = biological target: T1, Kir2.1 wild-type channels (Homo sapiens, UniProt P63252); settings: applied to the outside of cells expressing the wild-type channels; 10 mM
# T1 sequence (P63252 1-427): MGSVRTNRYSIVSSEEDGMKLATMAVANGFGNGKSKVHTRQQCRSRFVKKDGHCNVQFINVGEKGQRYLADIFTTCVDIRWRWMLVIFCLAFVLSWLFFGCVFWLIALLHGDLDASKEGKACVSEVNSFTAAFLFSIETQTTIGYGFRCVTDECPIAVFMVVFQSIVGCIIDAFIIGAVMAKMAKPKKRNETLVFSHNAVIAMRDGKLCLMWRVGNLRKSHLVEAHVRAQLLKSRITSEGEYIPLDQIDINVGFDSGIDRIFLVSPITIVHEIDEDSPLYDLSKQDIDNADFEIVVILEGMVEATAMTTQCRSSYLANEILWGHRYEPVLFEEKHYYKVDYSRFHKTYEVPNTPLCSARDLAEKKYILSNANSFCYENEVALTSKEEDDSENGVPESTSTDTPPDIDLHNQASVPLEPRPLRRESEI
# Kir1.1 channels = biological target: T2, Kir1.1 channels (Homo sapiens, UniProt P48048)
# T2 sequence (P48048 1-391): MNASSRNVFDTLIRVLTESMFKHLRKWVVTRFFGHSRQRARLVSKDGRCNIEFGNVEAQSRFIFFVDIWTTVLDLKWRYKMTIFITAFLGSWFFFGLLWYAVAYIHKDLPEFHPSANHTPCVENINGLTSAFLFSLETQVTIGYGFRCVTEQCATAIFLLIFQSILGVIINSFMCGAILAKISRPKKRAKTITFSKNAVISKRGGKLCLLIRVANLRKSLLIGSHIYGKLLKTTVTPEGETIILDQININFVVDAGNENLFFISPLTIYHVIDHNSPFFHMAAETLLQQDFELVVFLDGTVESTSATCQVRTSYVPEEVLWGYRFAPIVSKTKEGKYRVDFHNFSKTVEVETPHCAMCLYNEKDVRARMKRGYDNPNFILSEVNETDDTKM
# Kir3.4 channels = biological target: T3, Kir3.4 channels (Homo sapiens, UniProt P48544+P48549)
# T3 sequence (P48544 1-419): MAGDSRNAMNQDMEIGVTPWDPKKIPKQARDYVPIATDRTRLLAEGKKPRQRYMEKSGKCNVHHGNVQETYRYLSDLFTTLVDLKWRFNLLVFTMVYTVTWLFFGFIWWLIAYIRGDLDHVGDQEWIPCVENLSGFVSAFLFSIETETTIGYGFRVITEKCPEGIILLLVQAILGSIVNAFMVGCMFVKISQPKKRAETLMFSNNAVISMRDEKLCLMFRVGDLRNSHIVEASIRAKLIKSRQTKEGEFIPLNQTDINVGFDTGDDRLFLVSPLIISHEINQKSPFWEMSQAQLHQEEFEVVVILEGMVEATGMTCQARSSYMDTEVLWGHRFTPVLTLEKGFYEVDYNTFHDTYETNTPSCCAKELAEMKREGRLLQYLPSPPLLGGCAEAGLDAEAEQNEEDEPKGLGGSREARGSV
# T3 sequence (P48549 1-501): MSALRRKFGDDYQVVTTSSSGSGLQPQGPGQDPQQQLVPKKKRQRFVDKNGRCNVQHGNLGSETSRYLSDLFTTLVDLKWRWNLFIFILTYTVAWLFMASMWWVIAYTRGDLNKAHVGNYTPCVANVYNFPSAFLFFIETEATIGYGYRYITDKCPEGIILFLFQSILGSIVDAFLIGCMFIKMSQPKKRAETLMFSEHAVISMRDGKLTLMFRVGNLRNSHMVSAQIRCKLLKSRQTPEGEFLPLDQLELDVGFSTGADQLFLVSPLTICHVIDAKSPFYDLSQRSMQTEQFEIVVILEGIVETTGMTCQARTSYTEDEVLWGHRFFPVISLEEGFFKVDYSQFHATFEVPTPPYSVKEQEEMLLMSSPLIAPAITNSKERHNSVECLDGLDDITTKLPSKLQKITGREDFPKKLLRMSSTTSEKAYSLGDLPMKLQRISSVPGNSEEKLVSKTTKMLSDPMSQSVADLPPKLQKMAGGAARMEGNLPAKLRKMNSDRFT
# [2] = system: Kir2.1 channel, variable sequence mutated to be Kir3.4-like; settings: turret variable sequence mutated to be Kir3.4-like
Compound,effect on currents [1],inhibition of Kir1.1 channels (Kir1.1 channels),inhibition of Kir3.4 channels (Kir3.4 channels),sensitivity of mutated Kir2.1 channel to the toxin [2],"single channel conductance in the blocked state (Kir1.1 channels; blocked state, reduced rather than inhibited all the way)"
"O[C@H](CS)[C@H](O)CS (racemic) [DTT, Dithiothreitol]",did not affect currents,,,,
N[C@@H](CCC(=O)N[C@@H](CS)C(=O)NCC(=O)O)C(=O)O [reduced glutathione],did not affect currents,,,,
"tertiapin (ALCNCNRIIIPHMCWKKCGKK; ends and bridges not checked; cysteine pairing not given here; UniProt P56587 1-21, looked up)",,inhibits,inhibits,becomes sensitive,
δ-dendrotoxin,,inhibits,,,about 10%
